# US20220160712A1, “METHODS OF TREATING RHEUMATOID ARTHRITIS AND FOR PREDICTING THE RESPONSE TO METHOTREXATE” (CHAN ZUCKERBERG BIOHUB, INC., priority 2020, published 2022)
# Several values for one entry are separate records, joined by “and”; a condition that tells them apart may be missing. Equal entries are not always repeated.
# Columns and labels:
# [1] = system: human gut bacterial isolates; assay: In vitro bacterial growth studies (MIC, growth curves) on a panel of 45 isolates; type: cell-based
# Description: 42/45 of the tested isolates are commonly found in the human gut microbiota, with the exceptions of Bacteroides acidifaciens (found in mice), Delftia acidovorans (found in soil), and Bacillus subtilis 168 (found in soil). Each of these strains was obtained from the Deutsche Sammlung von Mikroorganismen and Zellkulturen (DSMZ) culture collection. A single colony of each isolate was subcultured in Bacto Brain Heart Infusion (BD Biosciences, 37 g/L) supplemented with L-cysteine-HCl (0.05%, w/v), menadione (1 μg/mL), and hemin (5 μg/mL) (referred to hereafter as BHI+) for 48 hours in an anaerobic chamber (Coy Laboratory Products) at 37° C. with an atmosphere composed of 2-3% H2, 20% CO2, and the balance N2. This subculture was diluted down to an OD600 of 0.08-0.1, which was then further diluted 100-fold, and then used to inoculate a microtiter plate with 2-fold serial dilutions of MTX concentrations ranging from 0-900 μg/ml. Plates were incubated at 37° C. with shaking in an Eon Microplate Spectrophotometer (BioTek Instruments, Inc) over a 48 to 72-hour period in the anaerobic chamber. Growth was monitored every 15 minutes at OD600 and corrected for background (no growth control). Data were exported using the Gen5 (v 2.0) software. […] As with any in vitro system, the growth of cells may be dependent on the growth medium used, and for these studies, a rich medium (BHI+) was used.
# Growth parameters (carrying capacity, time to mid-exponential and growth rate) were calculated in R using GrowthCurveR (Sprouffske, K., and Wagner, A. (2016), BMC Bioinformatics 17, 1726) (v0.2.1). Curves that could not be fit by the software (i.e., generated a warning/error message) were excluded from further analysis. […] Determination of dose-dependency was done by fitting a linear regression with methotrexate concentration as the independent variable and the estimated growth parameter as the dependent variable using lm from the stats package (v3.5.1). For rescue studies, as above, growth parameters (carrying capacity, time to mid-exponential, growth rate, and area under the curve) were calculated in R using GrowthCurveR (Sprouffske and Wagner, 2016) (v0.2.1). Four isolates were evaluated with varying sensitivity to MTX (B. thetaiotaomicron, B. vulgatus, C. innocuum and C. symbiosum). C. asparagiforme was excluded because rescue of growth would be difficult to identify in this MTX resistant strain (FIG. 2D). Growth curves at 9 concentrations of MTX tested against 7 concentrations of folic acid were measured. Determination of dose-dependency at each tested concentration of MTX was done by fitting a linear regression with folic acid or leucovorin concentration as the independent variable and the estimated growth parameter as the dependent variable using lm from the stats package (v3.5.1). […] A p-value cutoff of p<0.05 was used to identify effects that were dose-dependent based on the linear regression.
# [2] = Predicted concentration of MTX in the gastrointestinal (GI) tract; set-up: species or system human; conditions: for predicted concentration of MTX in the proximal GI tract: RA oral dose 25 mg divided by 250 ml
# Protocol: The predicted concentration of MTX in the proximal GI tract was estimated by taking the oral dose used for rheumatoid arthritis (25 mg) and dividing it by 250 ml Dahlgren, D., and Lennernas, H. (2019), Pharmaceutics 11, 411; Dressman, J. B., et al., (1985), J Pharm Sci 74, 588-589; Shekhawat, P.B., and Pokharkar, V. B. (2017), Acta Pharm Sin B 7, 260-280), giving a concentration of 100 μg/ml or 220 μM. Further refinement of this estimate was done based on variations in the absorption of oral MTX in the proximal intestine (Grim, J., et al., (2003), Clin Pharmacokinet 42, 139-151), where it is estimated that 10-70% of the dose is not absorbed and instead delivered to the distal GI tract in RA patients. Thus, the estimated range of MTX in the GI tract was calculated to be 10-70 μg/ml with 100 μg/ml being the highest predicted concentration (prior to absorption by the host). When considering the doses used for cancer therapy (50 mg/day of oral MTX), the predicted range is 20-140 μg/ml with 200 μg/ml being the highest dose. MTX can also be given intravenously (IV) or intrathecally for the treatment of cancer (Treon, S. P., and Chabner, B. A. (1996), Clin Chem 42, 1322-1329), and is typically given at much higher doses, including as high as 800-1000 mg IV over 24 hours for the treatment of cancers such as lymphoma or acute lymphoblastic leukemia. Assuming that 30% of this is enterohepatically circulated et al., (1982), Cancer Res 42, 1279-1282), then between 240 and 300 mg would enter the GI tract, and the predicted concentration in the GI tract would be between 960-1200 μg/ml.
# [3] = cancer therapy, 50 mg/day oral MTX
compound,measurement,setting,value
"CN(Cc1cnc2nc(N)nc(N)c2n1)c1ccc(C(=O)N[C@@H](CCC(=O)O)C(=O)O)cc1 [MTX, methotrexate]",percentage of tested isolates inhibited at the estimated concentration in the proximal GI tract,"[1]; 22-220 μM or 10-100 μg/ml MTX, 5-15 of 45 isolates",11-33%
same,Minimal inhibitory concentration (MIC),"[1]; 45 isolates, MTX 1.7-900 μg/ml, 2-2,000 μM, 48 hours, BHI+, anaerobic",ranged across the full gradient
same,number of isolates resistant to the maximum concentration tested,"[1]; 45 isolates, maximum 900 μg/ml, 48 hours",11
same,sensitivity of Bacteroidetes relative to the other phyla,[1]; MICs of isolates spanning 4 major phyla (FIG. 2B),tended to be sensitive
same,isolates with full growth inhibition or alterations in growth curve parameters,"[1]; MTX concentrations predicted to be found in the human gut, 36/45 isolates",80%
same,percentage of tested isolates with at least one growth parameter affected in a dose-dependent manner,"[1]; sub-MIC concentrations, subset of strains with growth curves",78%
same,predicted concentration in the GI tract,"[2]; 800-1000 mg IV over 24 hours, assuming 30% enterohepatically circulated",960 to 1200 µg/mL
same,estimated concentration of MTX in the proximal gastrointestinal (GI) tract,[2]; Example 2,22-220 μM and 10-100 μg/ml
same,estimated range of MTX in the GI tract,"[2]; RA dose, 10-70% of the dose not absorbed",10 to 70 µg/mL
same,predicted concentration of MTX in the proximal GI tract,[2],220 µM
same,predicted concentration of MTX in the proximal GI tract,"[2]; highest, prior to absorption",100 µg/mL
same,highest predicted concentration of MTX in the GI tract,[2]; [3],200 µg/mL
same,predicted range of MTX in the GI tract,[2]; [3],20 to 140 µg/mL
